The values that follow come from ChEMBL document CHEMBL1142291, “A novel bicyclic hexapeptide, RA-XVIII, from Rubia cordifolia: structure, semi-synthesis, and cytotoxicity” (Bioorg Med Chem Lett, 2008).

For this assay, the system named is P388. The assay is described as follows: Cytotoxicity against mouse P388 cells. It counts as functional, cell-based.

Values after ≈ are worked out from the molar mass of the structure shown.

For orientation: IC50 means the concentration that gives 50% inhibition. A higher IC50 goes with weaker potency. Compound `COc1ccc(C[C@H]2C(=O)N[C@@H](C)C(=O)N(C)[C@H]3Cc4ccc(cc4)Oc4cc(cc([N+](=O)[O-])c4O)C[C@@H](C(=O)N[C@H](C)C(=O)N[C@@H](C)C(=O)N2C)N(C)C3=O)cc1` had an IC50 of 0.014 µg/mL (≈ 0.0175 µM). In turn, `COc1ccc(C[C@H]2C(=O)N[C@@H](C)C(=O)N(C)[C@H]3Cc4ccc(cc4)Oc4cc(cc([N+](=O)[O-])c4OC)C[C@@H](C(=O)N[C@H](C)C(=O)N[C@@H](C)C(=O)N2C)N(C)C3=O)cc1` showed a concentration for half-maximal inhibition (IC50) of 0.01 µg/mL (≈ 0.0123 µM).

`COc1ccc(C[C@H]2C(=O)N[C@@H](C)C(=O)N(C)[C@H]3Cc4ccc(cc4)Oc4cc(c([N+](=O)[O-])cc4OC)C[C@@H](C(=O)N[C@H](C)C(=O)N[C@@H](C)C(=O)N2C)N(C)C3=O)cc1` displayed an IC50 of 0.056 µg/mL (≈ 0.0686 µM). Compared with the last compound, the IC50 is about 5.6-fold higher. On to `COc1ccc(C[C@H]2C(=O)N[C@@H](C)C(=O)N(C)[C@H]3Cc4ccc(cc4)Oc4cc(c(O)cc4OC)C[C@@H](C(=O)N[C@H](C)C(=O)N[C@@H](C)C(=O)N2C)N(C)C3=O)cc1`, for which the IC50 is 0.093 µg/mL (≈ 0.118 µM). Consider `COc1ccc(C[C@H]2C(=O)N[C@@H](C)C(=O)N(C)[C@H]3Cc4ccc(cc4)Oc4cc(ccc4OC)C[C@@H](C(=O)N[C@H](C)C(=O)N[C@@H](C)C(=O)N2C)N(C)C3=O)cc1`, for which half-maximal inhibition (IC50) required 0.003 µg/mL (≈ 0.00389 µM). On to `COc1ccc(C[C@H]2C(=O)N[C@@H](C)C(=O)N(C)[C@H]3Cc4ccc(cc4)Oc4cc(cc(O)c4OC)C[C@@H](C(=O)N[C@H](C)C(=O)N[C@@H](C)C(=O)N2C)N(C)C3=O)cc1`, for which the 50% inhibitory concentration (IC50) stood at 0.012 µg/mL (≈ 0.0153 µM). As for `COc1ccc(C[C@H]2C(=O)N[C@@H](C)C(=O)N(C)[C@H]3Cc4ccc(cc4)Oc4cc(cc(N)c4OC)C[C@@H](C(=O)N[C@H](C)C(=O)N[C@@H](C)C(=O)N2C)N(C)C3=O)cc1`, 0.0071 µg/mL (≈ 0.00903 µM) corresponded to half-maximal inhibition (IC50). Turning to `COc1ccc(C[C@H]2C(=O)N[C@@H](C)C(=O)N(C)[C@H]3Cc4ccc(cc4)Oc4cc(c(N)cc4OC)C[C@@H](C(=O)N[C@H](C)C(=O)N[C@@H](C)C(=O)N2C)N(C)C3=O)cc1`, 0.7 µg/mL (≈ 0.891 µM) corresponded to half-maximal inhibition (IC50). `COc1ccc(C[C@H]2C(=O)N[C@@H](C)C(=O)N(C)[C@H]3Cc4ccc(cc4)Oc4cc(ccc4O)C[C@@H](C(=O)N[C@H](C)C(=O)N[C@@H](C)C(=O)N2C)N(C)C3=O)cc1` [DEOXYBOUVARDIN] displayed an IC50 of 0.014 µg/mL (≈ 0.0185 µM).
